# Source: US20100063008A1, “GELATINOUS ELASTOMER COMPOSITIONS” (Silipos, Inc., priority 2008, published 2010)
# What was measured:
# [1] = Exudation of active agents from gel specimens to filter paper discs, quantified by UV, MS, GC and/or HPLC after extraction; format: physicochemical; conditions: for Active Agent Transferred from Gel to Filters: 37° C., 0.40 psi; for Total Active Agent Exuded from Gel: cumulative
# Experimental: Sample filter paper discs were placed in contact with gel specimens of same diameter under constant low pressure (0.40 psi. (2.8 Mpa)) at 37° C. Multiple time-controlled exposures of the filter paper to the gel were preformed in succession to same side of gel. Quantification of active agent transferred to the filter paper discs was determined by UV, MS, GC and or HPLC analysis after extraction of active agent from the filter paper. Exudation rates was expressed as μg/unit time per unit surface area.
# This compound was then divided into three aliquots' of approximately 10 grams each and poured into a 2.625″ diameter aluminum petri dish and allowed to cool to create individual gel samle discs. Subsequently, absorbent cellulose filter blotter paper was die cut to enough 2.625″ diameter discs to be employed as a wicking media for repeated exposure in direct contact with the gel compound under specific conditions as follows.
# (§1) Exposure Conditions: 37-40 deg. C., Sample filter paper discs in contact with gel specimens of same diameter were stacked in […]. aluminum petri dishes, gel specimen diameter 2.625″×0.125″ thick, filter paper disc diameter 2.625″ with another petri dish and a 1 kg dead weight on top of stack. Pressure calculated at ˜0.407 psi. (2.8 Mpa) constant. Two replicates per test condition. Repeat exposures at 3 hours then repeat three exposures of 18 hours each, changing discs but keeping same gel specimen and same side of each gel specimen in contact with each successive filter paper disc sample.
# The filter paper disc specimens aa through kk were then sent to an analytical laboratory for HPLC and GC analysis along with a small sample of each individual raw ingredient so that the HPLC and GC equipment could be calibrated for the protocol being employed by the lab. This calibration allowed for determining the maximum recoverable (measurable) amount of each ingredient that could be measured using these techniques and would later be used to correct the data. The analytical laboratory then detected and measured the amount of each of the added active agents that was flushed out of the filter paper discs using wet chemistry techniques known to those skilled in the art.
# The analytical data was interpreted, and the amounts of each ingredient which was exuded into each filter paper blotter disc specimen, and subsequently extracted using wet chemistry, were then entered into a data analysis spreadsheet and adjusted based on the Analytical Recovery Rate to determine actual concentration of each ingredient extracted.
# [2] = Total weight of exudate (oil) absorbed by filter paper blotter discs and theoretical amount of each ingredient exuded; format: physicochemical
# Experimental: as §1
# Data was calculated to determine the total weight of exudate absorbed by each individual sample filter paper blotter disc test specimen. Calculations were then performed based upon the ratios of ingredients in the gel disc formula to determine the theoretical amount of each ingredient that could have been exuded from the oil if the oil contained the same ratio of ingredients as contained in the control oil sample and in the gel.
# [3] = Gel Specimen Number 1, 1 h filter exposure, time 0-1 h
# [4] = Gel Specimen Number 1, 3 h filter exposure, time 1-4 h
# [5] = Gel Specimen Number 1, 18 h filter exposure, time 4-22 h
# [6] = Gel Specimen Number 1, 18 h filter exposure, time 22-40 h
# [7] = Gel Specimen Number 1, 18 h filter exposure, time 40-58 h
# [8] = Gel Specimen Number 1, Time 1 h
# [9] = Gel Specimen Number 1, Time 4 h
# [10] = Gel Specimen Number 1, Time 22 h
# [11] = Gel Specimen Number 1, Time 40 h
# [12] = Gel Specimen Number 1, Time 58 h
# [13] = Gel Specimen Number 2, 1 h filter exposure, time 0-1 h
# [14] = Gel Specimen Number 2, 3 h filter exposure, time 1-4 h
# [15] = Gel Specimen Number 2, 18 h filter exposure, time 4-22 h
# [16] = Gel Specimen Number 2, 18 h filter exposure, time 22-40 h
# [17] = Gel Specimen Number 2, 18 h filter exposure, time 40-58 h
# [18] = Gel Specimen Number 2, Time 1 h
# [19] = Gel Specimen Number 2, Time 4 h
# [20] = Gel Specimen Number 2, Time 22 h
# [21] = Gel Specimen Number 2, Time 40 h
# [22] = Gel Specimen Number 2, Time 58 h
# [23] = Specimen aa, Hours 1, Cummulative Hours 1
# [24] = Specimen bb, Hours 1, Cummulative Hours 1
# [25] = Specimen cc, Hours 3, Cummulative Hours 4
# [26] = Specimen dd, Hours 3, Cummulative Hours 4
# [27] = Specimen ee, Hours 18, Cummulative Hours 22
# [28] = Specimen ff, Hours 18, Cummulative Hours 22
# [29] = Specimen gg, Hours 18, Cummulative Hours 40
# [30] = Specimen hh, Hours 18, Cummulative Hours 40
# [31] = Specimen ii, Hours 18, Cummulative Hours 58
# [32] = Specimen kk, Hours 18, Cummulative Hours 58
# [33] = Sample aa, Test Disc 1, Exposed 1 hours
# [34] = Sample bb, Test Disc 1 Replicate, Exposed 1 hours
# [35] = Sample cc, Test Disc 2, Exposed 3 hours
# [36] = Sample dd, Test Disc 2 Replicate, Exposed 3 hours
# [37] = Sample ee, Test Disc 3, Exposed 18 hours
# [38] = Sample ff, Test Disc 3 Replicate, Exposed 18 hours
# [39] = Sample gg, Test Disc 4, Exposed 18 hours
# [40] = Sample hh, Test Disc 4 Replicate, Exposed 18 hours
# [41] = Sample ii, Test Disc 5, Exposed 18 hours
# [42] = Sample kk, Test Disc 5 Replicate, Exposed 18 hours
"Active Agent Transferred from Gel to Filters [1, 3] [μg per filter]","Active Agent Transferred from Gel to Filters [1, 4] [μg per filter]","Active Agent Transferred from Gel to Filters [1, 5] [μg per filter]","Active Agent Transferred from Gel to Filters [1, 6] [μg per filter]","Active Agent Transferred from Gel to Filters [1, 7] [μg per filter]","Total Active Agent Exuded from Gel [1, 8] [µg]","Total Active Agent Exuded from Gel [1, 9] [µg]","Total Active Agent Exuded from Gel [1, 10] [µg]","Total Active Agent Exuded from Gel [1, 11] [µg]","Total Active Agent Exuded from Gel [1, 12] [µg]","Active Agent Transferred from Gel to Filters [1, 13] [μg per filter]","Active Agent Transferred from Gel to Filters [1, 14] [μg per filter]","Active Agent Transferred from Gel to Filters [1, 15] [μg per filter]","Active Agent Transferred from Gel to Filters [1, 16] [μg per filter]","Active Agent Transferred from Gel to Filters [1, 17] [μg per filter]","Total Active Agent Exuded from Gel [1, 18] [µg]","Total Active Agent Exuded from Gel [1, 19] [µg]","Total Active Agent Exuded from Gel [1, 20] [µg]","Total Active Agent Exuded from Gel [1, 21] [µg]","Total Active Agent Exuded from Gel [1, 22] [µg]",Compound,further results
1005,1694,4812,5165,3882,1005,2699,7511,12675,16558,1753,2506,4847,4271,3729,1753,4259,9106,13376,17106,"COC(=O)c1ccccc1O [Methyl Salicylate, reference compound]","Quantitative Analysis - Islechem u-gram extraction [1, 23]: 854 u-gram; Quantitative Analysis - Islechem u-gram extraction [1, 24]: 1490 u-gram; Quantitative Analysis - Islechem u-gram extraction [1, 25]: 1440 u-gram; Quantitative Analysis - Islechem u-gram extraction [1, 26]: 2130 u-gram; Quantitative Analysis - Islechem u-gram extraction [1, 27]: 4090 u-gram; Quantitative Analysis - Islechem u-gram extraction [1, 28]: 4120 u-gram; Quantitative Analysis - Islechem u-gram extraction [1, 29]: 4390 u-gram; Quantitative Analysis - Islechem u-gram extraction [1, 30]: 3630 u-gram; Quantitative Analysis - Islechem u-gram extraction [1, 31]: 3300 u-gram; Quantitative Analysis - Islechem u-gram extraction [1, 32]: 3170 u-gram; Estimated grams of ingredient exuded (theoretical amount from ratios of ingredients in the gel disc formula) [2, 33]: 0.0022 grams; Estimated grams of ingredient exuded (theoretical amount from ratios of ingredients in the gel disc formula) [2, 34]: 0.0031 grams; Estimated grams of ingredient exuded (theoretical amount from ratios of ingredients in the gel disc formula) [2, 35]: 0.0024 grams; Estimated grams of ingredient exuded (theoretical amount from ratios of ingredients in the gel disc formula) [2, 36]: 0.0035 grams; Estimated grams of ingredient exuded (theoretical amount from ratios of ingredients in the gel disc formula) [2, 37]: 0.0062 grams; Estimated grams of ingredient exuded (theoretical amount from ratios of ingredients in the gel disc formula) [2, 38]: 0.0062 grams; Estimated grams of ingredient exuded (theoretical amount from ratios of ingredients in the gel disc formula) [2, 39]: 0.0064 grams; Estimated grams of ingredient exuded (theoretical amount from ratios of ingredients in the gel disc formula) [2, 40]: 0.0057 grams; Estimated grams of ingredient exuded (theoretical amount from ratios of ingredients in the gel disc formula) [2, 41]: 0.0051 grams; Estimated grams of ingredient exuded (theoretical amount from ratios of ingredients in the gel disc formula) [2, 42]: 0.0051 grams"
3578,4193,8952,8566,7193,3578,7771,16723,25289,32482,4855,5373,8916,7446,7108,4855,10229,19145,26590,33699,Synthetic Menthol [S-Menthol],"Quantitative Analysis - Islechem u-gram extraction [1, 23]: 2970 u-gram; Quantitative Analysis - Islechem u-gram extraction [1, 24]: 4030 u-gram; Quantitative Analysis - Islechem u-gram extraction [1, 25]: 3480 u-gram; Quantitative Analysis - Islechem u-gram extraction [1, 26]: 4460 u-gram; Quantitative Analysis - Islechem u-gram extraction [1, 27]: 7430 u-gram; Quantitative Analysis - Islechem u-gram extraction [1, 28]: 7400 u-gram; Quantitative Analysis - Islechem u-gram extraction [1, 29]: 7110 u-gram; Quantitative Analysis - Islechem u-gram extraction [1, 30]: 6180 u-gram; Quantitative Analysis - Islechem u-gram extraction [1, 31]: 5970 u-gram; Quantitative Analysis - Islechem u-gram extraction [1, 32]: 5900 u-gram; Estimated grams of ingredient exuded (theoretical amount from ratios of ingredients in the gel disc formula) [2, 33]: 0.0022 grams; Estimated grams of ingredient exuded (theoretical amount from ratios of ingredients in the gel disc formula) [2, 34]: 0.0031 grams; Estimated grams of ingredient exuded (theoretical amount from ratios of ingredients in the gel disc formula) [2, 35]: 0.0024 grams; Estimated grams of ingredient exuded (theoretical amount from ratios of ingredients in the gel disc formula) [2, 36]: 0.0035 grams; Estimated grams of ingredient exuded (theoretical amount from ratios of ingredients in the gel disc formula) [2, 37]: 0.0062 grams; Estimated grams of ingredient exuded (theoretical amount from ratios of ingredients in the gel disc formula) [2, 38]: 0.0062 grams; Estimated grams of ingredient exuded (theoretical amount from ratios of ingredients in the gel disc formula) [2, 39]: 0.0064 grams; Estimated grams of ingredient exuded (theoretical amount from ratios of ingredients in the gel disc formula) [2, 40]: 0.0057 grams; Estimated grams of ingredient exuded (theoretical amount from ratios of ingredients in the gel disc formula) [2, 41]: 0.0051 grams; Estimated grams of ingredient exuded (theoretical amount from ratios of ingredients in the gel disc formula) [2, 42]: 0.0051 grams"
10,11,21,31,15,10,21,42,72,87,12,15,30,21,16,12,27,57,78,94,O=c1c(O)c(-c2ccc(O)c(O)c2)oc2cc(O)cc(O)c12 [Quercetin],"Quantitative Analysis - Islechem u-gram extraction [1, 23]: 9 u-gram; Quantitative Analysis - Islechem u-gram extraction [1, 24]: 11 u-gram; Quantitative Analysis - Islechem u-gram extraction [1, 25]: 9.4 u-gram; Quantitative Analysis - Islechem u-gram extraction [1, 26]: 13.2 u-gram; Quantitative Analysis - Islechem u-gram extraction [1, 27]: 18.6 u-gram; Quantitative Analysis - Islechem u-gram extraction [1, 28]: 28.6 u-gram; Quantitative Analysis - Islechem u-gram extraction [1, 29]: 27.5 u-gram; Quantitative Analysis - Islechem u-gram extraction [1, 30]: 19 u-gram; Quantitative Analysis - Islechem u-gram extraction [1, 31]: 13.2 u-gram; Quantitative Analysis - Islechem u-gram extraction [1, 32]: 14.2 u-gram; Estimated grams of ingredient exuded (theoretical amount from ratios of ingredients in the gel disc formula) [2, 33]: 0.0009 grams; Estimated grams of ingredient exuded (theoretical amount from ratios of ingredients in the gel disc formula) [2, 34]: 0.0012 grams; Estimated grams of ingredient exuded (theoretical amount from ratios of ingredients in the gel disc formula) [2, 35]: 0.0009 grams; Estimated grams of ingredient exuded (theoretical amount from ratios of ingredients in the gel disc formula) [2, 36]: 0.0014 grams; Estimated grams of ingredient exuded (theoretical amount from ratios of ingredients in the gel disc formula) [2, 37]: 0.0024 grams; Estimated grams of ingredient exuded (theoretical amount from ratios of ingredients in the gel disc formula) [2, 38]: 0.0024 grams; Estimated grams of ingredient exuded (theoretical amount from ratios of ingredients in the gel disc formula) [2, 39]: 0.0025 grams; Estimated grams of ingredient exuded (theoretical amount from ratios of ingredients in the gel disc formula) [2, 40]: 0.0022 grams; Estimated grams of ingredient exuded (theoretical amount from ratios of ingredients in the gel disc formula) [2, 41]: 0.0020 grams; Estimated grams of ingredient exuded (theoretical amount from ratios of ingredients in the gel disc formula) [2, 42]: 0.0020 grams"
